Data from US10308639B2, “Phosphatidylinositol 3-kinase inhibitors” (Gilead Sciences, Inc., priority 2014, dated 2019).

How the values were obtained:
Type in all cases: biochemical
[1] = target: T1, PI3Kβ (Homo sapiens, UniProt P42338); assay: TR-FRET enzymatic activity assay, PI3Kβ; details: Table 2a; same assay
T1 construct: made in house

[2] = target: T2, PI3Kδ (Homo sapiens, UniProt O00329); assay: TR-FRET enzymatic activity assay, PI3Kδ; details: Table 2a; same assay
T2 construct: made in house

[3] = target: T3, PI3Kγ (Homo sapiens, UniProt P48736); assay: TR-FRET enzymatic activity assay, PI3Kγ; details: Table 2a; same assay; read-out: PI3Kγ IC50
T3 construct: made in house
Procedure, shortened: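 Each PI3K isoform is tested in an enzymatic format. Signal comes from time-resolved fluorescence energy transfer.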

T2 sequence (O00329 whole entry): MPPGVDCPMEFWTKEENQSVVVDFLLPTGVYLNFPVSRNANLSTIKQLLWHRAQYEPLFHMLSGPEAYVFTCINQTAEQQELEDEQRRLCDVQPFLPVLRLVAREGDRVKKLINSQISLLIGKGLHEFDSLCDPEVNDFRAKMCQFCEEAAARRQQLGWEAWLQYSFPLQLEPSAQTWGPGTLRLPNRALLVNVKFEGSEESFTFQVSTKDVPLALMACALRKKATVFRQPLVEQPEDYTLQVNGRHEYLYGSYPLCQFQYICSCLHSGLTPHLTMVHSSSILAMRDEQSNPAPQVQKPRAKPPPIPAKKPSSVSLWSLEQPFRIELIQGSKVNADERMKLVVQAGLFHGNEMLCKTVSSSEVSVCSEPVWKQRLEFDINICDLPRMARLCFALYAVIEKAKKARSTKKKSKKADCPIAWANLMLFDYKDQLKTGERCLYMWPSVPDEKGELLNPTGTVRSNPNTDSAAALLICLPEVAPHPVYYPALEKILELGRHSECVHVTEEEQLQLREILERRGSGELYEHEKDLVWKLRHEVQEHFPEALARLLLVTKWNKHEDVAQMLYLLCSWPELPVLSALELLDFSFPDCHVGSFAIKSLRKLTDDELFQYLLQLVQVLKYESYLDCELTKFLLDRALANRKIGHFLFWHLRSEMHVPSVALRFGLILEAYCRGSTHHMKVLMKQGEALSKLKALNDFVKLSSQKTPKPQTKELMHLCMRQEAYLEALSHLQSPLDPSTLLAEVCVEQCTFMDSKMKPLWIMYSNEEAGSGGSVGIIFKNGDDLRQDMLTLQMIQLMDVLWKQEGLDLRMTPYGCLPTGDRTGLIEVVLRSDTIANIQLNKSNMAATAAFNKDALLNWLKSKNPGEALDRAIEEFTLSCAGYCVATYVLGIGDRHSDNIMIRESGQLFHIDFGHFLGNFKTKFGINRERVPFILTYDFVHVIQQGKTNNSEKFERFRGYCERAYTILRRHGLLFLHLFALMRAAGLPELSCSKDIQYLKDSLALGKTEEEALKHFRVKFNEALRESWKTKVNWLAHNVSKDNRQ
T2 sequence (P27986 whole entry partner): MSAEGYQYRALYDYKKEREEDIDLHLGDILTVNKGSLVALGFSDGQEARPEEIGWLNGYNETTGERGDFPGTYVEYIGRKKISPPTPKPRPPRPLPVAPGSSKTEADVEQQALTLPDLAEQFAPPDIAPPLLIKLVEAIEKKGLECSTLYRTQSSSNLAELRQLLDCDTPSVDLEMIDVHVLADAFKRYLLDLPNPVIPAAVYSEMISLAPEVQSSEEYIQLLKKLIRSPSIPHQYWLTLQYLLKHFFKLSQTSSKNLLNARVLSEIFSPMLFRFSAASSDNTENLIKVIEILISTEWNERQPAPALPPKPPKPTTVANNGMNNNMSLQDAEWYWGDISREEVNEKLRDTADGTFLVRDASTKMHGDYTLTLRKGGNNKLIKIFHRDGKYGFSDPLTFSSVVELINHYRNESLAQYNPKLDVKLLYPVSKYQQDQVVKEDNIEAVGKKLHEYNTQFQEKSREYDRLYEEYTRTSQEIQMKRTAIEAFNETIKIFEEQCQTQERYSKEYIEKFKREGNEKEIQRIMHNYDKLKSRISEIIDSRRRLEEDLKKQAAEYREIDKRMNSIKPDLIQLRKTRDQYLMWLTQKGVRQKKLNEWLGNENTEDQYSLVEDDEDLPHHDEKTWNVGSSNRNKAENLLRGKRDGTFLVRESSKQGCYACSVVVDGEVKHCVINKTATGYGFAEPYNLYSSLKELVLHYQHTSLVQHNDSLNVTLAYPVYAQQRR
T1 sequence (P42338 whole entry): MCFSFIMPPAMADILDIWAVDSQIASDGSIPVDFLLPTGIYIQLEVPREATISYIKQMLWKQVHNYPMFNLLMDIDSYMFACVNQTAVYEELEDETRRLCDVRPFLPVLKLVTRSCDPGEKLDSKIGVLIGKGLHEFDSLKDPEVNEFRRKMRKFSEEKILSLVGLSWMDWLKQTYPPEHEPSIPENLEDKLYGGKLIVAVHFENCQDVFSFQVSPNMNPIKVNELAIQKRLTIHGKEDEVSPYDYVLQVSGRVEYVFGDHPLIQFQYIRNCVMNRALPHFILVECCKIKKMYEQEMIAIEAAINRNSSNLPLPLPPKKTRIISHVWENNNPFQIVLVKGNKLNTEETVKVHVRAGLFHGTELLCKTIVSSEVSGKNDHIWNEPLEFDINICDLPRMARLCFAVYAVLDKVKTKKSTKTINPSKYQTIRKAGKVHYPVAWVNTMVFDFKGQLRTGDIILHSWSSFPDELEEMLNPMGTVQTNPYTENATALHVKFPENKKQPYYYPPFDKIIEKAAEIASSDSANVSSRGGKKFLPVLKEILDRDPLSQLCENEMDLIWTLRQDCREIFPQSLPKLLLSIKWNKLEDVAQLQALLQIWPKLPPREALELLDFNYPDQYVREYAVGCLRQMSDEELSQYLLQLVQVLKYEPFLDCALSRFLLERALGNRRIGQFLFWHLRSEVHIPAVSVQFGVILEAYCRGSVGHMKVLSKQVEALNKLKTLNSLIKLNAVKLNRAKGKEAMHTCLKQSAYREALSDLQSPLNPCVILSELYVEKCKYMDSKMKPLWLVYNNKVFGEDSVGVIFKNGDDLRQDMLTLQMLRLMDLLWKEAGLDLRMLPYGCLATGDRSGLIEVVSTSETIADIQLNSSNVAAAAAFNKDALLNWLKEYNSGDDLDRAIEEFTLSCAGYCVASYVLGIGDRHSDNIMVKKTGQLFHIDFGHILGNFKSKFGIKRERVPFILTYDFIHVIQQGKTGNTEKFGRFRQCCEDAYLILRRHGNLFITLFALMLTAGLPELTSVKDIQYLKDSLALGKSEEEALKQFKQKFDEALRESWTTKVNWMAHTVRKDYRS
T1 sequence (P27986 whole entry partner): as the sequence (P27986 whole entry partner) above
T3 sequence (P48736 whole entry): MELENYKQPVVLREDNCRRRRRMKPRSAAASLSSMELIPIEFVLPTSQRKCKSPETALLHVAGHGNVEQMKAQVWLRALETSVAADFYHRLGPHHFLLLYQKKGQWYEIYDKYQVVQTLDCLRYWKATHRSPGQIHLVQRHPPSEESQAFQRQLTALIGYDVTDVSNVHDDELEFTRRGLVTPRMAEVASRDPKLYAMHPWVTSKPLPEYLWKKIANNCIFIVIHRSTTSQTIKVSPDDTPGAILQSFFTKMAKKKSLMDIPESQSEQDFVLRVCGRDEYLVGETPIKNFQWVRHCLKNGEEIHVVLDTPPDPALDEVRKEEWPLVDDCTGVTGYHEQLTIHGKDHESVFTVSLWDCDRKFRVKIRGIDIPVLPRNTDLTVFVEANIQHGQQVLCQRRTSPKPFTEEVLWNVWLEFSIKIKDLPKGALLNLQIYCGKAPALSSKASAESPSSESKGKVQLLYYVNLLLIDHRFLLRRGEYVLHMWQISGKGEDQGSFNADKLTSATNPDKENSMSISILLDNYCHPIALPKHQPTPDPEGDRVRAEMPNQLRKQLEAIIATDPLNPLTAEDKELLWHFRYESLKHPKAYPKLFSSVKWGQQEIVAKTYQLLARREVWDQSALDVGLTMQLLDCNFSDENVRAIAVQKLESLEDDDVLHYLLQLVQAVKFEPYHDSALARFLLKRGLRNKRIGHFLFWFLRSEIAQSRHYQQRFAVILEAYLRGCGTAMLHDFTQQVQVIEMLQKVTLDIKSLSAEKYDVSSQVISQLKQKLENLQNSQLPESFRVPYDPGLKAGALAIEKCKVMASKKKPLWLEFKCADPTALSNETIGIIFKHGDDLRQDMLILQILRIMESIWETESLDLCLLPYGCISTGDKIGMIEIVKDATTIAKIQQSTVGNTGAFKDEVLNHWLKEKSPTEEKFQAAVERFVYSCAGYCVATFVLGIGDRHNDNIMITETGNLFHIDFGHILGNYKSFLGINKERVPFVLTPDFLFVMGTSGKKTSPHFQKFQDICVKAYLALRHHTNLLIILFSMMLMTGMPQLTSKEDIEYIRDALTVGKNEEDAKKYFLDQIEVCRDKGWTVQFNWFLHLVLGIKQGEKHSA

IC50 [1] [nM] | IC50 [2] [nM] | IC50 [3] [nM] | SMILES
628 | 270 | > 10000 | C[C@H](Nc1nc(N)nc(C(F)F)c1Cl)c1nc2c(Cl)cc(F)cc2c(=O)n1-c1cc[nH]n1 [Compound 226, (S)-2-(1-((2-amino-5-chloro-6-(difluoromethyl)pyrimidin-4-yl)amino)ethyl)-8-chloro-6-fluoro-3-(1H-pyrazol-3-yl)quinazolin-4(3H)-one]
9 | 8 | 5000 | C[C@H](Nc1nc(N)nc(N)c1Cl)c1nc2c(Cl)ccc(C(F)F)c2c(=O)n1-c1cc[nH]n1 [Compound 227, (S)-8-chloro-2-(1-((2,6-diamino-5-chloropyrimidin-4-yl)amino)ethyl)-5-(difluoromethyl)-3-(1H-pyrazol-3-yl)quinazolin-4(3H)-one]
1 | 0.6 | 870 | C[C@H](Nc1nc(N)nc(N)c1C#N)c1nc2c(Cl)ccc(C(F)F)c2c(=O)n1-c1cc[nH]n1 [Compound 228, (S)-2,4-diamino-6-((1-(8-chloro-5-(difluoromethyl)-4-oxo-3-(1H-pyrazol-3-yl)-3,4-dihydroquinazolin-2-yl)ethyl)amino)pyrimidine-5-carbonitrile]
85 | 49 | 5000 | C[C@H](Nc1nc(N)nc(N)c1Cl)c1nc2ccc(Cl)c(C(F)F)c2c(=O)n1-c1cc[nH]n1 [Compound 229, (S)-6-chloro-2-(1-((2,6-diamino-5-chloropyrimidin-4-yl)amino)ethyl)-5-(difluoromethyl)-3-(1H-pyrazol-3-yl)quinazolin-4(3H)-one]
7 | 6 | 1800 | C[C@H](Nc1nc(N)nc(N)c1C#N)c1nc2ccc(Cl)c(C(F)F)c2c(=O)n1-c1cc[nH]n1 [Compound 230, (S)-2,4-diamino-6-((1-(6-chloro-5-(difluoromethyl)-4-oxo-3-(1H-pyrazol-3-yl)-3,4-dihydroquinazolin-2-yl)ethyl)amino)pyrimidine-5-carbonitrile]
13 | 12 | 6100 | C[C@H](Nc1nc(N)nc(N)c1C#N)c1nc2c(F)c(F)ccc2c(=O)n1-c1cc[nH]n1 [Compound 231, (S)-2,4-diamino-6-((1-(7,8-difluoro-4-oxo-3-(1H-pyrazol-3-yl)-3,4-dihydroquinazolin-2-yl)ethyl)amino)pyrimidine-5-carbonitrile]
11 | 12 | 9600 | C[C@H](Nc1nc(N)nc(N)c1C#N)c1nc2cc(F)cc(F)c2c(=O)n1-c1cc[nH]n1 [Compound 235, (S)-2,4-diamino-6-((1-(5,7-difluoro-4-oxo-3-(1H-pyrazol-3-yl)-3,4-dihydroquinazolin-2-yl)ethyl)amino)pyrimidine-5-carbonitrile]
2 | 2 | 1400 | C[C@H](Nc1nc(N)nc(N)c1C#N)c1nc2cc(F)cc(Cl)c2c(=O)n1-c1cc[nH]n1 [Compound 237, (S)-2,4-diamino-6-((1-(5-chloro-7-fluoro-4-oxo-3-(1H-pyrazol-3-yl)-3,4-dihydroquinazolin-2-yl)ethyl)amino)pyrimidine-5-carbonitrile]

Second part, the compound before the results:

SMILES | IC50 [1] [nM] | IC50 [2] [nM] | IC50 [3] [nM]
C[C@H](Nc1nc(N)nc(N)c1C#N)c1nc2cccc(C(F)F)c2c(=O)n1-c1cc[nH]n1 [Compound 211, (S)-2,4-diamino-6-((1-(5-(difluoromethyl)-4-oxo-3-(1H-pyrazol-3-yl)-3,4-dihydroquinazolin-2-yl)ethyl)amino)pyrimidine-5-carbonitrile] | 0.6 | 0.3 | 82
C[C@H](Nc1nc(N)nc(N)c1C#N)c1nc2cccc(C(F)F)c2c(=O)n1-c1cn[nH]c1 [Compound 212, (S)-2,4-diamino-6-((1-(5-(difluoromethyl)-4-oxo-3-(1H-pyrazol-4-yl)-3,4-dihydroquinazolin-2-yl)ethyl)amino)pyrimidine-5-carbonitrile] | 1 | 0.7 | 34
C[C@H](Nc1nc(N)nc(N)c1Cl)c1nc2cccc(C(F)F)c2c(=O)n1-c1cn[nH]c1 [Compound 213, (S)-2-(1-((2,6-diamino-5-chloropyrimidin-4-yl)amino)ethyl)-5-(difluoromethyl)-3-(1H-pyrazol-4-yl)quinazolin-4(3H)-one] | 36 | 5 | 520
N#Cc1c(N)nc(N)nc1N[C@H](c1nc2cccc(C(F)F)c2c(=O)n1-c1cc[nH]n1)C1CC1 [Compound 214, (S)-2,4-diamino-6-((cyclopropyl(5-(difluoromethyl)-4-oxo-3-(1H-pyrazol-3-yl)-3,4-dihydroquinazolin-2-yl)methyl)amino)pyrimidine-5-carbonitrile] | 2 | 0.6 | 240
Nc1nc(N)c(Cl)c(N[C@H](c2nc3cccc(C(F)F)c3c(=O)n2-c2cc[nH]n2)C2CC2)n1 [Compound 215, (S)-2-(cyclopropyl((2,6-diamino-5-chloropyrimidin-4-yl)amino)methyl)-5-(difluoromethyl)-3-(1H-pyrazol-3-yl)quinazolin-4(3H)-one] | 10 | 6 | 2700
Cc1n[nH]cc1-n1c([C@H](C)Nc2nc(N)nc(N)c2C#N)nc2cccc(Cl)c2c1=O [Compound 216, (S)-2,4-diamino-6-((1-(5-chloro-3-(3-methyl-1H-pyrazol-4-yl)-4-oxo-3,4-dihydroquinazolin-2-yl)ethyl)amino)pyrimidine-5-carbonitrile] | 3 | 0.4 | 40
C[C@H](Nc1nc(N)nc(N)c1C#N)c1nc2c(Cl)ccc(Cl)c2c(=O)n1-c1cn[nH]c1 [Compound 217, (S)-2,4-diamino-6-((1-(5,8-dichloro-4-oxo-3-(1H-pyrazol-4-yl)-3,4-dihydroquinazolin-2-yl)ethyl)amino)pyrimidine-5-carbonitrile] | 0.6 | 0.2 | 83
Cc1n[nH]cc1-n1c([C@H](C)Nc2nc(N)nc(N)c2Cl)nc2c(Cl)ccc(Cl)c2c1=O [Compound 218, (S)-5,8-dichloro-2-(1-((2,6-diamino-5-chloropyrimidin-4-yl)amino)ethyl)-3-(3-methyl-1H-pyrazol-4-yl)quinazolin-4(3H)-one] | 210 | 20 | > 10000
Cc1n[nH]cc1-n1c([C@H](C)Nc2nc(N)nc(N)c2C#N)nc2c(Cl)ccc(Cl)c2c1=O [Compound 219, (S)-2,4-diamino-6-((1-(5,8-dichloro-3-(3-methyl-1H-pyrazol-4-yl)-4-oxo-3,4-dihydroquinazolin-2-yl)ethyl)amino)pyrimidine-5-carbonitrile] | 6 | 1 | 420
Cc1n[nH]cc1-n1c([C@@H](Nc2nc(N)nc(N)c2C#N)C2CC2)nc2c(Cl)cc(F)cc2c1=O [Compound 220, (S)-2,4-diamino-6-(((8-chloro-6-fluoro-3-(3-methyl-1H-pyrazol-4-yl)-4-oxo-3,4-dihydroquinazolin-2-yl)(cyclopropyl)methyl)amino)pyrimidine-5-carbonitrile] | 42 | 7 | 2200
Cc1n[nH]cc1-n1c([C@@H](Nc2nc(N)nc(N)c2Cl)C2CC2)nc2c(Cl)cc(F)cc2c1=O [Compound 221, (S)-8-chloro-2-(cyclopropyl((2,6-diamino-5-chloropyrimidin-4-yl)amino)methyl)-6-fluoro-3-(3-methyl-1H-pyrazol-4-yl)quinazolin-4(3H)-one] | 1100 | 180 | > 10000
Cc1ccc(Cl)c2nc([C@H](C)Nc3nc(N)nc(N)c3C#N)n(-c3cc[nH]n3)c(=O)c12 [Compound 222, (S)-2,4-diamino-6-((1-(8-chloro-5-methyl-4-oxo-3-(1H-pyrazol-3-yl)-3,4-dihydroquinazolin-2-yl)ethyl)amino)pyrimidine-5-carbonitrile] | 0.6 | 0.2 | 360
Cc1ccc(Cl)c2nc([C@H](C)Nc3nc(N)nc(N)c3Cl)n(-c3cc[nH]n3)c(=O)c12 [Compound 223, (S)-8-chloro-2-(1-((2,6-diamino-5-chloropyrimidin-4-yl)amino)ethyl)-5-methyl-3-(1H-pyrazol-3-yl)quinazolin-4(3H)-one] | 3 | 3 | 9400
Cc1ccc(Cl)c2nc([C@H](C)Nc3nc(N)nc(C(F)F)c3C#N)n(-c3cc[nH]n3)c(=O)c12 [Compound 224, (S)-2-amino-4-((1-(8-chloro-5-methyl-4-oxo-3-(1H-pyrazol-3-yl)-3,4-dihydroquinazolin-2-yl)ethyl)amino)-6-(difluoromethyl)pyrimidine-5-carbonitrile] | 5 | 2 | 2100
C[C@H](Nc1nc(N)nc(C(F)F)c1Cl)c1nc2cccc(Cl)c2c(=O)n1-c1cc[nH]n1 [Compound 225, (S)-2-(1-((2-amino-5-chloro-6-(difluoromethyl)pyrimidin-4-yl)amino)ethyl)-5-chloro-3-(1H-pyrazol-3-yl)quinazolin-4(3H)-one] | 537 | 300 | > 10000
C[C@H](Nc1nc(N)nc(N)c1Cl)c1nc2c(F)c(F)ccc2c(=O)n1-c1cc[nH]n1 [Compound 232, (S)-2-(1-((2,6-diamino-5-chloropyrimidin-4-yl)amino)ethyl)-7,8-difluoro-3-(1H-pyrazol-3-yl)quinazolin-4(3H)-one] | 260 | 190 | > 10000
C[C@H](Nc1nc(N)nc(N)c1Cl)c1nc2cc(F)cc(F)c2c(=O)n1-c1cc[nH]n1 [Compound 236, (S)-2-(1-((2,6-diamino-5-chloropyrimidin-4-yl)amino)ethyl)-5,7-difluoro-3-(1H-pyrazol-3-yl)quinazolin-4(3H)-one] | 120 | 120 | > 10000
